Several values for one entry are separate records, joined by “and”; a condition that tells them apart may be missing. Equal entries are not always repeated. Where two headings read alike, the source gives them in different places.
How the values were obtained:
[1] = test system: NMDA receptor; experiment: Whole-cell voltage-clamp recording of NMDA-evoked currents in cultured hippocampal neurons; type: cell-based, rat
Description: (§1) Primary hippocampal neuronal cultures were prepared as previously described. In brief, timed pregnant rats Sprague-Dawley rats (Charles River Laboratories International, Wilmington, MA, USA) were anesthetized with isoflurane. E18 embryos were obtained and the hippocampi were dissected and treated in Hank’s balanced salt solution (HBSS; Invitrogen, Carlsbad, CA, USA) with trypsin (0.03%, Sigma-Aldrich, St. Louis, MO) for 20 min at 37°C. After inactivation of trypsin with neuronal medium (Neurobasal medium; Invitrogen, Life Technologies, Grand Island, NY, USA) supplemented with NS21, 0.5 mM glutamine, 10 mM HEPES) plus 5% horse serum (HS; Invitrogen), the tissue was washed twice with HBSS, and triturated with a fire-polished Pasteur pipette. After non-dissociated pieces of tissue settled, cells in the supernatant were collected by centrifugation (1100 rpm at 200×g for 3.5 min), re-suspended in neuronal medium plus 5% horse serum, counted, and plated on coverslips (Warner Instruments, Hamden, CT, USA) coated with 0.1% (w/v) poly-L-lysine (Peptides International, Louisville, KY, USA). The cell density was 3×10^4 cm^−2 in plating medium. After 4 h, the medium was replaced with serum-free neuronal medium. Cells were grown in a humidified environment of 95% air/5% CO2 at 37°C. One third of medium was changed after 5 days in vitro (DIV) and weekly thereafter.
(§2) Whole-cell voltage clamp experiments were performed 7–25 days after plating. […]. The pipette solution contained 145 CsCl, 0.1 mM CaCl2, 2 mM MgCl2, 1 mM EGTA, and 5 mM HEPES. For NMDA-mediated currents, recordings were made in a bath solution containing 135 mM NaCl, 5 mM KCl, 0.2 mM CaCl2, 10 mM HEPES, 1 µM TTX, 10 µM bicuculline, 1 µM strychnine, 10 µM NBQX, 3 µM glycine. The pipette solution contained 145 CsCl, 0.1 mM CaCl2, 1 mM EGTA, and 5 mM HEPES.
Recordings were made with an Axopatch 200B patch-clamp amplifier (Axon Instruments, Foster City, CA, USA). Whole-cell currents were filtered at 2 kHz and digitized at 10 kHz. All neurons were voltage-clamped at −60 mV. […]

[2] = test system: AMPA receptor; experiment: Whole-cell voltage-clamp recording of AMPA-evoked currents in cultured hippocampal neurons; type: cell-based, rat
Description: as §1, §2
(§3) Recordings were made with an Axopatch 200B patch-clamp amplifier (Axon Instruments, Foster City, CA, USA). Whole-cell currents were filtered at 2 kHz and digitized at 10 kHz. All neurons were voltage-clamped at −60 mV. The following drugs dissolved in bath solution were applied using a fast perfusion system (VC^3-8XP, ALA Scientific Instrument, NY, USA): kainate (3, 10, 100 µM), AMPA (10, 30, 100 µM), NMDA (10, 100 µM), and perampanel (0.01–30 µM). All were from Sigma-Aldrich except perampanel, which was from Eisai Inc. Solution reservoirs contained the drugs separately or the combination of an agonist (kainate, AMPA or NMDA) plus perampanel. Each solution reservoir was connected to a pinch valve of the 8-channel VC^3-8XP perfusion system, which fed solution to an 8-to-1 mini-manifold (MP-8, Warner Instruments, Hamden, CT) that has a dead-volume of 3.5 µl when switching between solutions. Only one perfusion line was open at a time. The opening speed was 15–20 ms. The command for switching among perfusion lines was generated by the pClamp software and delivered to the control box of the perfusion system via a TTL connection.

[3] = target: AMPA receptor; parameters: method as in PMID 21635236; settings: cultured rat cortical neurons; read-out: IC50, inhibition of AMPA-induced Ca2+ influx; cited from earlier work
[4] = target: AMPA receptor; settings: CA1 area, rat hippocampal slices; read-out: IC50, inhibition of AMPA receptor component of the field response; cited from earlier work
[5] = test system: AMPA receptor; experiment: Whole-cell voltage-clamp recording of kainate-evoked (AMPA receptor) currents in cultured hippocampal neurons; type: cell-based, rat; settings: for percent inhibition of kainate-evoked current: sample current
Description: as §1, §2, §3

[6] = test system: NMDA receptor; settings: 30 µM; studies to date; cited from earlier work
[7] = test system: kainate receptor; settings: CA1 area, rat hippocampal slices; cited from earlier work
[8] = test system: NMDA receptor; settings: CA1 area, rat hippocampal slices; cited from earlier work
[9] = test system: AMPA receptors; settings: rat forebrain membranes; earlier radioligand binding studies; cited from earlier work
[10] = test system: AMPA receptor; settings: cited from earlier work
[11] = 30 µM perampanel preapplied 5 s then coapplied, 10 and 100 µM NMDA
[12] = 1 µM perampanel, 10, 30 and 100 µM AMPA
[13] = 3 µM perampanel and 100 µM AMPA applied simultaneously

Compound: N#Cc1ccccc1-c1cc(-c2ccccn2)cn(-c2ccccc2)c1=O [Perampanel, 2-(2-oxo-1-phenyl-5-pyridin-2-yl-1,2-dihydropyridin-3-yl)benzonitrile]
- effect on mean amplitude of late NMDA-evoked current [1, 11]: failed to affect
- effect on mean amplitude of peak NMDA-evoked current [1, 11]: failed to affect
- effect on NMDA receptor currents ([1]; summary statement): did not affect
- effect on decay time constant of AMPA-evoked currents [2, 12]: did not alter
- effect on peak to late ratio of AMPA-evoked currents [2, 12]: not statistically different from control
- effect on rise time constant of AMPA-evoked currents [2, 12]: did not alter
- reduction of peak AMPA response [2, 13]: 17%
- time to full block [2, 13]: ≤ 5 s
- reduction in the peak and late AMPA responses ([2]; 3 µM perampanel started 5 s before 100 µM AMPA): ~60%
- time constant (τ) of inhibition of AMPA receptor currents ([2]; 3 µM perampanel, currents evoked by AMPA and kainate): ~1 s
- time over which block develops without preexposure ([2]; 3 µM perampanel, kainate- and AMPA-evoked currents (Fig. 3)): ~3 s
- IC50 ([2]; 10 µM AMPA, holding −60 mV, perampanel preapplied 5 s then coapplied, read-out: AMPA Response IC50, Peak Current): 0.4 µM
- IC50 ([2]; 10 µM AMPA, late current at end of 5 s AMPA perfusion, read-out: AMPA Response IC50, Late Current): 0.4 µM
- IC50 ([2]; 30 µM AMPA, holding −60 mV, perampanel preapplied 5 s then coapplied, read-out: AMPA Response IC50, Peak Current): 0.8 µM
- IC50 ([2]; 30 µM AMPA, late current at end of 5 s AMPA perfusion, read-out: AMPA Response IC50, Late Current): 0.9 µM
- Kd ([2]; 100 µM AMPA-evoked currents, read-out: kinetically determined binding affinity (KD = k–1/k1)): 3.9 µM
- mean off rate determined from the τoff values ([2]; 100 µM AMPA, 1, 3 and 10 µM perampanel): 0.68 s⁻¹
- unbinding rate constant k–1 (rate of unblock, dissociation rate) ([2]; 100 µM AMPA, 1, 3 and 10 µM perampanel, intercept of kapp vs concentration): 0.58 s⁻¹
- binding rate constant k1 (rate of block, association rate) ([2]; 100 µM AMPA, 1, 3 and 10 µM perampanel, slope of kapp vs concentration): 1.5×10^5 M^−1 s^−1 and 1.51±0.10×10^5 M^−1 s^−1
- IC50 ([2]; 100 µM AMPA, holding −60 mV, perampanel preapplied 5 s then coapplied, read-out: AMPA Response IC50, Peak Current): 0.9 µM
- IC50 ([2]; 100 µM AMPA, late current at end of 5 s AMPA perfusion, read-out: AMPA Response IC50, Late Current): 1.2 µM
- IC50 [3]: 0.093 µM
- IC50 [4]: 0.23 µM
- percent inhibition of kainate-evoked current ([5]; 0.1 µM perampanel, 100 µM kainate): 20%
- percent inhibition of kainate-evoked current ([5]; 0.3 µM perampanel, 100 µM kainate): 41%
- percent inhibition of kainate-evoked current ([5]; 1 µM perampanel, 100 µM kainate): 55%
- IC50 ([5]; 3 µM kainate, holding −60 mV, perampanel preapplied 5 s then coapplied, read-out: Kainate Response IC50): 0.58 µM
- time constant (τ) of development of block ([5]; 3 µM perampanel started 5 s after onset of 100 µM kainate): 1.2 ± 0.1 s
- reduction of the kainate-induced current ([5]; 3 µM perampanel started 5 s before kainate (100 µM), one neuron): ~73%
- time constant (τ) of recovery from block ([5]; 3 µM perampanel, 100 µM kainate, after termination of perampanel): 3.3 ± 1.5 s
- percent inhibition of kainate-evoked current ([5]; 3 µM perampanel, 100 µM kainate): 80%
- IC50 ([5]; 10 µM kainate, holding −60 mV, perampanel preapplied 5 s then coapplied, read-out: Kainate Response IC50): 0.51 µM
- IC50 ([5]; 100 µM kainate, holding −60 mV, perampanel preapplied 5 s then coapplied, read-out: Kainate Response IC50): 0.58 µM
- IC50 ([5]; overall value, similar at all kainate concentrations (3–100 µM), read-out: IC50, block of non-desensitizing kainate-evoked currents): 0.56 µM
- inhibition of NMDA responses [6]: only minimally inhibits
- effect on kainate receptor component of the field response [7]: without affecting
- effect on NMDA receptor component of the field response [8]: without affecting

Compound: CCN(CC)Cc1cccc(/C=C/c2nc3ccc(F)cc3c(=O)n2-c2ccccc2Cl)n1 [CP-465,022]
- displacement of [3H]perampanel binding [9]: displaced

Compound: CC1=NN=C(c2ccc(N)cc2)c2cc3c(cc2C1)OCO3 [GYKI 52466, 1-(4-amino-phenyl)-4-methyl-7,8-methyl-endioxyl-5H-2,3-benzodiaze pine]
- inhibition of steady AMPA receptor current ([10]; 30 µM): ~50%
- time in which block occurs ([10]; 30 µM): several hundred milliseconds
- association rate [10]: 160000 M⁻¹ s⁻¹
- dissociation rate [10]: 3.2 s⁻¹
- displacement of [3H]perampanel binding [9]: displaced

From article PMC4168215, “Perampanel Inhibition of AMPA Receptor Currents in Cultured Hippocampal Neurons” (PLoS ONE, 2014)
